The values below come from ChEMBL document CHEMBL4334436 (Medchemcomm, 2019).

In one assay the target is D(2) dopamine receptor (Homo sapiens, UniProt P14416). Description: Displacement of [3H]spiperone from human dopamine D2S receptor expressed in CHO-K1 cell membrane incubated for 2 hrs by MicroBeta Trilux scintillation counting method. It is filed as cell membranes.
The target in a further assay is D(3) dopamine receptor (Homo sapiens, UniProt P35462). As to the kind of experiment: Displacement of [3H]spiperone from human dopamine D3 receptor expressed in dihydrofolate reductase deficient CHO-K1 cell membrane incubated for 2 hrs by MicroBeta Trilux scintillation counting method. It is filed as cell membranes.
Chain of D(3) dopamine receptor (P35462 whole entry): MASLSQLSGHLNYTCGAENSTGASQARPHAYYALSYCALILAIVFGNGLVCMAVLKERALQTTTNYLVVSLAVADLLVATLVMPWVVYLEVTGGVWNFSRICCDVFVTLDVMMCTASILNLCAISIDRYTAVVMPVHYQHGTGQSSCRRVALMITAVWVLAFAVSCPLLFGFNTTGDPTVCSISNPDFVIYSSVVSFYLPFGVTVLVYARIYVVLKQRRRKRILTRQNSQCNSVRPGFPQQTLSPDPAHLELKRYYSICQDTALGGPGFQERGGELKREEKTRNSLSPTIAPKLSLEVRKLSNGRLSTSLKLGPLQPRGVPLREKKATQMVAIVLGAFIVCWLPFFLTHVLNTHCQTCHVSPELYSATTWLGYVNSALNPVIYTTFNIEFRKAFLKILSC

Molecules are shown by their SMILES.

Chain of D(2) dopamine receptor (P14416 whole entry): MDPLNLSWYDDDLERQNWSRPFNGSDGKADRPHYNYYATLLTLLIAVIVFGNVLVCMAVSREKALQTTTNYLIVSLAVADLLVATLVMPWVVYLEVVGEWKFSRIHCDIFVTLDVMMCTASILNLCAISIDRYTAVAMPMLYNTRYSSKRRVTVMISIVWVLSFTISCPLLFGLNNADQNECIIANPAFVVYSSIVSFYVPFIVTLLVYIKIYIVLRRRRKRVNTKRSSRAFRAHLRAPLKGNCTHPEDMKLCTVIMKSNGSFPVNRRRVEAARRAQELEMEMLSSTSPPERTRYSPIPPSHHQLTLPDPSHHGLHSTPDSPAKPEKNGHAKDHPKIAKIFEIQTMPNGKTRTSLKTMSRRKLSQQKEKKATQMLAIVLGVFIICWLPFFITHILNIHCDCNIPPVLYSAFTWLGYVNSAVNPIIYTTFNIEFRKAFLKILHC

As a reminder, the Ki is the equilibrium dissociation constant of an inhibitor or competing ligand from its target. Read a high Ki as lower affinity. For `Nc1nc2c(s1)CCN(CCCCN1CCN(c3ncccn3)CC1)CC2`, the values for the Ki on D(2) dopamine receptor and at D(3) dopamine receptor were 2750 nM and 3800 nM, respectively.
Turning to `O=C(c1ccccc1)N1CCN(CCN2CCc3ncsc3CC2)CC1`, the Ki is 41700 nM on D(2) dopamine receptor and 12300 nM at D(3) dopamine receptor.
For `c1cnc(N2CCN(CCCCN3CCc4ncsc4CC3)CC2)nc1`, in that order: 2510 nM and 3090 nM.
In the same order, the values of `Clc1cccc(N2CCN(CCCCN3CCc4ncsc4CC3)CC2)c1Cl` are 18.2 nM and 28.2 nM.
Take `COc1ccccc1N1CCN(CCCCOc2ccc3scnc3c2)CC1`: the Ki on D(2) dopamine receptor is 3.24 nM; on D(3) dopamine receptor, 8.51 nM.
For `COc1ccccc1N1CCN(CCN2CCc3ncsc3CC2)CC1`, in that order: 151 nM and 240 nM.
Turning to `O=C(NCCCCN1CCc2ncsc2CC1)C12CC3CC(CC(C3)C1)C2`, the results for the inhibition constant (Ki) on D(2) dopamine receptor and at D(3) dopamine receptor were 5500 nM and 447 nM, respectively.
In the same order, the values of `COc1ccccc1N1CCN(CCCCOc2ccc3sc(N)nc3c2)CC1` are 2.82 nM and 3.02 nM.
As to `c1nc2c(s1)CCN(CCCCN1CCc3ncsc3CC1)CC2`, the inhibitory constant (Ki) was 6310 nM at D(2) dopamine receptor and 3800 nM at D(3) dopamine receptor.
With `COc1ccccc1N1CCN(CCCN2CCCc3ncsc3C2)CC1`, the Ki at D(2) dopamine receptor was 178 nM; on D(3) dopamine receptor it was 257 nM.
In the same order, the values of `COc1ccccc1N1CCN(CCCN2CCc3ncsc3CC2)CC1` are 64.6 nM and 166 nM.
Take `Nc1nc2c(s1)CCN(CCCCN1CCN(c3cccc(Cl)c3Cl)CC1)CC2`: the Ki was 22.4 nM at D(2) dopamine receptor and 25.7 nM at D(3) dopamine receptor.
Regarding `COc1ccccc1N1CCN(CCCCN2CCc3ncsc3CC2)CC1`, the inhibition constant (Ki) on D(2) dopamine receptor is 85.1 nM; on D(3) dopamine receptor, 309 nM.
